pIC50: −log10 of the molar value.

This experiment deals with human RORgammaT-Ligand Binding Domain (LBD) (Homo sapiens (Human), UniProt P51449). As to the kind of experiment: RORγ-Ligand Binding Domain TR-FRET Assay (co-activator peptide SRC1_2 recruitment). The settings on record: HIS-tagged RORγ-LBD 3 nM, biotinylated SRC1 LXXLL peptide 100 nM, incubated overnight at 4° C., 665 nm/615 nm ratio. It counts as biochemical. An outline of the steps: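 E. coli-expressed, Ni2+-purified HIS-tagged human RORγ-LBD at 3 nM final in 50 mM Tris pH 7.0, 50 mM KCl, 1 mM EDTA, 0.1 mM DTT, 100 μg/mL delipidated BSA. TR-FRET read-out of SRC1_2 co-activator peptide recruitment; compounds dispensed acoustically.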
Sequence of human RORgammaT-Ligand Binding Domain (LBD) (P51449 269-508): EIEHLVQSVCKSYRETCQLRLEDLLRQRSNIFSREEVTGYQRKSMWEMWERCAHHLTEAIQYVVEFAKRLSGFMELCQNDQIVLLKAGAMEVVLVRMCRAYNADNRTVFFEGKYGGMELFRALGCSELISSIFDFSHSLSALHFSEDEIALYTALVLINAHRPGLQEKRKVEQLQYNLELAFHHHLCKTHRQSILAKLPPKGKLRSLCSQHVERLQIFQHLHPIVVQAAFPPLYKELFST

As usually defined, the pIC50 is the IC50 on a negative log10 scale, so that one unit is a factor of ten. Regarding `CC(C)(OC(=O)Nc1ccc2c(c1)N(S(=O)(=O)c1cc(C3CC3)ccc1F)C[C@H](CCC(=O)O)O2)C(F)(F)F` [Example 6CH, 3-[(2S)-4-[(5-cyclopropyl-2-fluorophenyl)sulfonyl]-6-{[(2,2,2-trifluoro-1,1-dimethylethoxy)carbonyl]amino}-3,4-dihydro-2H-1,4-benzoxazin-2-yl]propanoic acid], the pIC50 was 7.74.

On to `CC(C)(OC(=O)Nc1ccc2c(c1)N(S(=O)(=O)c1cccc(C#N)c1)C[C@H](CCC(=O)O)O2)C(F)(F)F` [Example 6L, (S)-3-(4-((3-cyanophenyl)sulfonyl)-6-((((1,1,1-trifluoro-2-methylpropan-2-yl)oxy)carbonyl)amino)-3,4-dihydro-2H-benzo[b][1,4]oxazin-2-yl)propanoic acid], for which the negative-log IC50 (pIC50) is 7.96.

On to `CC(C)(OC(=O)Nc1ccc2c(c1)N(S(=O)(=O)c1ccc(F)c(F)c1)C[C@H](CCC(=O)O)O2)C(F)(F)F` [Example 6N, (S)-3-(4-((3,4-difluorophenyl)sulfonyl)-6-((((1,1,1-trifluoro-2-methylpropan-2-yl)oxy)carbonyl)amino)-3,4-dihydro-2H-benzo[b][1,4]oxazin-2-yl)propanoic acid], for which the pIC50 was 7.85.

With `CC(C)(OC(=O)Nc1ccc2c(c1)N(S(=O)(=O)c1cccc(OC(F)(F)F)c1)C[C@H](CCC(=O)O)O2)C(F)(F)F` [Example 6S, (S)-3-(6-((((1,1,1-trifluoro-2-methylpropan-2-yl)oxy)carbonyl)amino)-4-((3-(trifluoromethoxy)phenyl)sulfonyl)-3,4-dihydro-2H-benzo[b][1,4]oxazin-2-yl)propanoic acid], the negative-log IC50 (pIC50) is 8.22.

For `CC(C)(OC(=O)Nc1ccc2c(c1)N(S(=O)(=O)c1cccc(OC(F)F)c1)C[C@H](CCC(=O)O)O2)C(F)(F)F` [Example 6T, (S)-3-(4-((3-(difluoromethoxy)phenyl)sulfonyl)-6-((((1,1,1-trifluoro-2-methylpropan-2-yl)oxy)carbonyl)amino)-3,4-dihydro-2H-benzo[b][1,4]oxazin-2-yl)propanoic acid], the negative logarithm of the IC50 (pIC50) was 8.40.

As to `CC(C)(OC(=O)Nc1ccc2c(c1)N(S(=O)(=O)c1cccc(S(C)(=O)=O)c1)C[C@H](CCC(=O)O)O2)C(F)(F)F` [Example 6X, (S)-3-(4-((3-(methylsulfonyl)phenyl)sulfonyl)-6-((((1,1,1-trifluoro-2-methylpropan-2-yl)oxy)carbonyl)amino)-3,4-dihydro-2H-benzo[b][1,4]oxazin-2-yl)propanoic acid], the pIC50 is 7.82.

`CC(C)(C[C@H]1CN(S(=O)(=O)c2cncc(C#N)c2)c2cc(NC(=O)OC(C)(C)C(F)(F)F)ccc2O1)C(=O)O` [Example 12M, 3-[(2S)-4-[(5-cyanopyridin-3-yl)sulfonyl]-6-{[(2,2,2-trifluoro-1,1-dimethylethoxy)carbonyl]ami-no}-3,4-dihydro-2H-1,4-benzoxazin-2-yl]-2,2-dimethylpropanoic acid]: the pIC50 was 7.21.

For the molecule `CCOc1sc(CC)nc1S(=O)(=O)N1C[C@H](CC(C)(C)C(=O)O)Oc2ccc(NC(=O)OC(C)(C)C(F)(F)F)cc21` [Example 12P, 3-[(2S)-4-[(5-ethoxy-2-ethyl-1,3-thiazol-4-yl)sulfonyl]-6-{[(2,2,2-trifluoro-1,1-dimethylethoxy)carbonyl]ami-no}-3,4-dihydro-2H-1,4-benzoxazin-2-yl]-2,2-dimethylpropanoic acid], the pIC50 was 8.04.

For the molecule `CCc1nc(S(=O)(=O)N2C[C@H](CC(C)(C)C(=O)O)Oc3ccc(NC(=O)OC(C)(C)C(F)(F)F)cc32)c(OCC(F)(F)F)s1` [Example 12R, 3-[(2S)-4-{[2-ethyl-5-(2,2,2-trifluoroethoxy)-1,3-thiazol-4-yl]sulfonyl}-6-{[(2,2,2-trifluoro-1,1-dimethylethoxy)carbonyl]ami-no}-3,4-dihydro-2H-1,4-benzoxazin-2-yl]-2,2-dimethylpropanoic acid], the pIC50 is 7.90.

Regarding `CCc1nc(S(=O)(=O)N2C[C@H](CC(C)(C)C(=O)O)Oc3ccc(NC(=O)OC(C)(C)C(F)(F)F)cc32)c(OC(C)C)s1` [Example 12S, 3-[(2S)-4-{[2-ethyl-5-(1-methylethoxy)-1,3-thiazol-4-yl]sulfonyl}-6-{[(2,2,2-trifluoro-1,1-dimethylethoxy)carbonyl]ami-no}-3,4-dihydro-2H-1,4-benzoxazin-2-yl]-2,2-dimethylpropanoic acid], the pIC50 is 7.78.

On to `CC(C)(C[C@H]1CN(S(=O)(=O)c2c(Cl)nn3c2CCCC3)c2cc(NC(=O)OC(C)(C)C(F)(F)F)ccc2O1)C(=O)O` [Example 12Y, 3-[(2S)-4-[(2-chloro-4,5,6,7-tetrahydropyrazolo[1,5-a]pyridin-3-yl)sulfonyl]-6-{[(2,2,2-trifluoro-1,1-dimethylethoxy)carbonyl]ami-no}-3,4-dihydro-2H-1,4-benzoxazin-2-yl]-2,2-dimethylpropanoic acid], for which the pIC50 is 7.84.

Consider `Cc1nn(C(F)F)cc1S(=O)(=O)N1C[C@H](CC(C)(C)C(=O)O)Oc2ccc(NC(=O)OC(C)(C)C(F)(F)F)cc21` [Example 12o, 3-[(2S)-4-{[1-(difluoromethyl)-3-methyl-1H-pyrazol-4-yl]sulfonyl}-6-{[(2,2,2-trifluoro-1,1-dimethylethoxy)carbonyl]ami-no}-3,4-dihydro-2H-1,4-benzoxazin-2-yl]-2,2-dimethylpropanoic acid], for which the pIC50 was 7.83.

With `CC(C)(OC(=O)Nc1ccc2c(c1)N(S(=O)(=O)c1cccc(C3CC3)c1)C[C@H](CC1(C(=O)O)CC1)O2)C(F)(F)F` [Example 14B, (S)-1-((4-((3-cyclopropylphenyl)sulfonyl)-6-((((1,1,1-trifluoro-2-methylpropan-2-yl)oxy)carbonyl)amino)-3,4-dihydro-2H-benzo[b][1,4]oxazin-2-yl)methyl)cyclopropanecarboxy-lic acid], the negative logarithm of the IC50 (pIC50) is 7.76.

For the molecule `CC(C)(OC(=O)Nc1ccc2c(c1)N(S(=O)(=O)c1cccc(C3CC3)c1)C[C@@H](CC1(C(=O)O)CC1)O2)C(F)(F)F` [Example 14D, (R)-1-((4-((3-cyclopropylphenyl)sulfonyl)-6-((((1,1,1-trifluoro-2-methylpropan-2-yl)oxy)carbonyl)amino)-3,4-dihydro-2H-benzo[b][1,4]oxazin-2-yl)mehtyl)cyclopropanecarboxy-lic acid], the pIC50 is 7.44.

With `CC(C)(OC(=O)Nc1ccc2c(c1)N(S(=O)(=O)c1ccc(F)c(C(F)(F)F)c1)C[C@H]([C@H]1C[C@H]1C(=O)O)O2)C(F)(F)F` [Example 22A, (1R,2S)-2-((S)-4-((4-fluoro-3-(trifluoromethyl)phenyl)sulfonyl)-6-((((1,1,1-trifluoro-2-methylpropan-2-yl)oxy)carbonyl)amino)-3,4-dihydro-2H-benzo[b][1,4]oxazin-2-yl)cyclopropanecarboxylic acid], the pIC50 is 7.65.

As for `CC(C)(OC(=O)Nc1ccc2c(c1)N(S(=O)(=O)c1ccc(F)c(C(F)(F)F)c1)C[C@H]([C@@H]1C[C@@H]1C(=O)O)O2)C(F)(F)F` [Example 22B, (1S,2R)-2-((S)-4-((4-fluoro-3-(trifluoromethyl)phenyl)sulfonyl)-6-((((1,1,1-trifluoro-2-methylpropan-2-yl)oxy)carbonyl)amino)-3,4-dihydro-2H-benzo[b][1,4]oxazin-2-yl)cyclopropanecarboxylic acid], the negative-log IC50 (pIC50) was 7.87.

On to `CC(C)(OC(=O)Nc1ccc2c(c1)N(S(=O)(=O)c1ccc(F)c(C(F)(F)F)c1)C[C@H]([C@@H]1C[C@H]1C(=O)O)O2)C(F)(F)F` [Example 22C, (1R,2R)-2-((S)-4-((4-fluoro-3-(trifluoromethyl)phenyl)sulfonyl)-6-((((1,1,1-trifluoro-2-methylpropan-2-yl)oxy)carbonyl)amino)-3,4-dihydro-2H-benzo[b][1,4]oxazin-2-yl)cyclopropanecarboxylic acid], for which the pIC50 was 8.06.

Consider `CC(C)(OC(=O)Nc1ccc2c(c1)N(S(=O)(=O)c1ccc(F)c(C(F)(F)F)c1)C[C@H]([C@H]1C[C@@H]1C(=O)O)O2)C(F)(F)F` [Example 22D, (1S,2S)-2-((S)-4-((4-fluoro-3-(trifluoromethyl)phenyl)sulfonyl)-6-((((1,1,1-trifluoro-2-methylpropan-2-yl)oxy)carbonyl)amino)-3,4-dihydro-2H-benzo[b][1,4]oxazin-2-yl)cyclopropanecarboxylic acid], for which the pIC50 was 8.23.

`COc1cc(S(=O)(=O)N2C[C@H](CCC(=O)O)Oc3ccc(NC(=O)OCC4(C(F)(F)F)CC4)cc32)ccc1F` [Example 24A, 3-{(2S)-4-[(4-fluoro-3-methoxyphenyl)sulfonyl]-6-[({[1-(trifluoromethyl)cyclopropyl]methoxy}carbonyl)amino]-3,4-dihydro-2H-1,4-benzoxazin-2-yl}propanoic acid]: the negative logarithm of the IC50 (pIC50) was 7.75.

Turning to `COc1cc(S(=O)(=O)N2C[C@H](CCC(=O)O)Oc3ccc(NC(=O)OC4(C(F)(F)F)CCC4)cc32)ccc1F` [Example 24B, 3-{(2S)-4-[(4-fluoro-3-methoxyphenyl)sulfonyl]-6-[({[1-(trifluoromethyl)cyclobutyl]oxy}carbonyl)amino]-3,4-dihydro-2H-1,4-benzoxazin-2-yl}propanoic acid], the pIC50 was 7.92.

With `C[C@@H]1[C@H](CCC(=O)O)Oc2ccc(NC(=O)OC(C)(C)C(F)(F)F)cc2N1S(=O)(=O)c1cccc(C(F)(F)F)c1` [Example 25, 3-((2S,3R)-3-methyl-6-((((1,1,1-trifluoro-2-methylpropan-2-yl)oxy)carbonyl)amino)-4-((3-(trifluoromethyl)phenyl)sulfonyl)-3,4-dihydro-2H-benzo[b][1,4]oxazin-2-yl)propanoic acid], the pIC50 is 8.00.

For `COc1cc(S(=O)(=O)N2c3cc(NC(=O)OC(C)(C)C(F)(F)F)ccc3O[C@H](CC(C)(C)C(=O)O)[C@@H]2C)ccc1F` [Example 27A, 3-[(2R,3S)-4-[(4-fluoro-3-methoxyphenyl)sulfonyl]-3-methyl-6-{[(2,2,2-trifluoro-1,1-dimethylethoxy)carbonyl]ami-no}-3,4-dihydro-2H-1,4-benzoxazin-2-yl]-2,2-dimethylpropanoic acid], the negative-log IC50 (pIC50) is 5.09.
